Assay results: publication PMC8501045, “Addressing MRSA infection and antibacterial resistance with peptoid polymers” (Nature Communications, 2021)
Where “and” joins values, the source holds several entries; their conditions need not be identical. Identical values can stand only once.

Columns and labels:
[1] = tested on: S. aureus USA300 mature biofilm; test: Activity against mature biofilm; assay type: cell-based, Staphylococcus aureus; conditions: for Biofilm survival(%): vancomycin, r4-r9 = 32, 64, 128, 256, 512, 1024 MIC
Experimental: The plate was incubated at 37 °C for 24 h to allow biofilm formation. […] Then MTT assay was used to determine the biofilm viability. Wells containing inoculum and without antibacterial agents were used as the positive control; wells containing only MH medium were used as the blank. The percentage of surviving cells within biofilm was calculated from5 %cellviability=A570polymer-A570blank/A570control-A570blank×100
(§1) The test was independently repeated at least three times.

[2] = tested on: S. aureus USA300 biofilm formation; test: Inhibition study on biofilm formation; assay type: cell-based, Staphylococcus aureus
Experimental: The plate was incubated at 37 °C for 24 h, and then the culture medium was removed, washed with PBS once, followed by adding 100 µL MTT solution (0.5 mg/mL) into the corresponding well. After further incubation at 37 °C for 4 h in the dark, the MTT solution was removed. An aliquot of 100 μL DMSO was added to each well to solubilize the purple solid and then the OD value was collected at 570 nm on a microplate reader. Wells containing inoculum and without antibacterial agents were used as the positive control; wells containing only MH medium were used as the blank. The percentage of surviving cells within biofilm was calculated from4 %cellviability=A570polymer-A570blank/A570control-A570blank×100
as §1

S. haemolyticus 0202 [3] = test: Mouse peritonitis model, CFU in organs, blood and IP fluid, S. haemolyticus; assay type: in vivo; conditions: Figure 6f
Experimental: (§2) This infection model was conducted according to the previously reported method with slight modification. Female ICR mice (21–24 g) were used for MRSA-infected peritonitis model. Mice were infected by intraperitoneal administration of 0.2 mL of S. aureus USA300 LAC in saline (7.5 × 10^8 CFU/mL) supplemented with 5% mucin. […] Once the infected mice died, peritoneal lavage was performed by injecting 3.0 mL of saline into the peritoneal cavity and massaging the abdomen. Subsequently, the abdomen was opened and peritoneal fluid was recovered from the abdominal cavity for analysis. Blood samples were collected through cardiac puncture for analysis of CFU/mL. Then, different organs including the heart, liver, spleen, lung, and kidney were removed and homogenized in 0.1% TX-100 solution. The homogenate was serially diluted for plating on LB agar. After incubation at 37 °C for 14 h, the number of colonies on the plate was counted to calculate the bacteria burden. Surviving mice were euthanized at 48 h after infection. The blood, peritoneal fluid, and organs were collected for the determination of bacterial colonies. […] For the pretreatment group, mice were sacrificed and tissues were harvested to determine the CFU at 1 h post infection.
For experiments of S. epidermidis and S. haemolyticus infections, female ICR mice (22–24 g) were rendered neutropenic by treatment with 150 and 100 mg/kg of cyclophosphamide intraperitoneally at 4 days and 1 day prior to infection. Mice were infected by intraperitoneal administration of 0.2 mL of S. epidermidis 9397 (5.1 × 10^9 CFU/mL) or S. haemolyticus 0202 (2.6 × 10^9 CFU/mL) in saline. Other experiment conditions were similar to those in MRSA peritonitis model.

S. aureus ATCC6538 = test: Bacterial killing kinetics; assay type: cell-based, Staphylococcus aureus; conditions: after 4 h of treatment
S. aureus USA300 LAC = test: Mouse peritonitis model, CFU in organs, blood and IP fluid, MRSA; assay type: in vivo; conditions: Figure 6d
Experimental: as §2

S. haemolyticus 0202 [4] = test: Mouse peritonitis model, survival test, S. haemolyticus; assay type: in vivo; conditions: i.p. 20 mg/kg, 7 days
Experimental: as §2, with “post infection. […]” for “post infection.”

## CN[C@H](CC(C)C)C(=O)N[C@H]1C(=O)N[C@@H](CC(N)=O)C(=O)N[C@H]2C(=O)N[C@H]3C(=O)N[C@H](C(=O)N[C@H](C(=O)O)c4cc(O)cc(O)c4-c4cc3ccc4O)[C@H](O)c3ccc(c(Cl)c3)Oc3cc2cc(c3O[C@@H]2O[C@H](CO)[C@@H](O)[C@H](O)[C@H]2O[C@H]2C[C@](C)(N)[C@H](O)[C@H](C)O2)Oc2ccc(cc2Cl)[C@H]1O [Vancomycin]
[1]
  concentration that eradicates mature biofilms of S. aureus: > 1024 × MIC
[1]; replicate 1
  Biofilm survival(%): 57.1927% and 41.3774% and 45.7038% and 29.4643% and 29.3131% and 28.1882%
[1]; replicate 2
  Biofilm survival(%): 57.8677% and 50.7936% and 39.7472% and 30.2942% and 28.1255% and 26.0416%
[2]
  concentration required to inhibit the formation of S. aureus biofilm: 2 × MIC
S. haemolyticus 0202 [3]; individual mouse 1 of 6
  Log10(CFU/mL IP fluid): 3.226 Log10(CFU/mL)
  Log10(CFU/mL Blood): 3.398 Log10(CFU/mL)
  Log10(CFU/g Heart): 4.437 Log10(CFU/g)
  Log10(CFU/g Kidney): 4.477 Log10(CFU/g)
  Log10(CFU/g Liver): 4.477 Log10(CFU/g)
  Log10(CFU/g Lung): 5.45 Log10(CFU/g)
  Log10(CFU/g Spleen): 6.652 Log10(CFU/g)
S. haemolyticus 0202 [3]; individual mouse 2 of 6
  Log10(CFU/mL IP fluid): 4.392 Log10(CFU/mL)
  Log10(CFU/mL Blood): 3.213 Log10(CFU/mL)
  Log10(CFU/g Heart): 5.504 Log10(CFU/g)
  Log10(CFU/g Kidney): 5.326 Log10(CFU/g)
  Log10(CFU/g Liver): 5.908 Log10(CFU/g)
  Log10(CFU/g Lung): 5.572 Log10(CFU/g)
  Log10(CFU/g Spleen): 7.228 Log10(CFU/g)
S. haemolyticus 0202 [3]; individual mouse 3 of 6
  Log10(CFU/mL IP fluid): 3.853 Log10(CFU/mL)
  Log10(CFU/mL Blood): 2.602 Log10(CFU/mL)
  Log10(CFU/g Heart): 4.593 Log10(CFU/g)
  Log10(CFU/g Kidney): 5 Log10(CFU/g)
  Log10(CFU/g Liver): 4.978 Log10(CFU/g)
  Log10(CFU/g Lung): 6.099 Log10(CFU/g)
  Log10(CFU/g Spleen): 6.728 Log10(CFU/g)
S. haemolyticus 0202 [3]; individual mouse 4 of 6
  Log10(CFU/mL IP fluid): 4.647 Log10(CFU/mL)
  Log10(CFU/mL Blood): 3.336 Log10(CFU/mL)
  Log10(CFU/g Heart): 5.198 Log10(CFU/g)
  Log10(CFU/g Kidney): 5.151 Log10(CFU/g)
  Log10(CFU/g Liver): 5.097 Log10(CFU/g)
  Log10(CFU/g Lung): 5.247 Log10(CFU/g)
  Log10(CFU/g Spleen): 6.799 Log10(CFU/g)
S. haemolyticus 0202 [3]; individual mouse 5 of 6
  Log10(CFU/mL IP fluid): 4.595 Log10(CFU/mL)
  Log10(CFU/mL Blood): 2.62 Log10(CFU/mL)
  Log10(CFU/g Heart): 4.862 Log10(CFU/g)
  Log10(CFU/g Kidney): 5.103 Log10(CFU/g)
  Log10(CFU/g Liver): 5.108 Log10(CFU/g)
  Log10(CFU/g Lung): 5.56 Log10(CFU/g)
  Log10(CFU/g Spleen): 6.226 Log10(CFU/g)
S. haemolyticus 0202 [3]; individual mouse 6 of 6
  Log10(CFU/mL IP fluid): 4.235 Log10(CFU/mL)
  Log10(CFU/mL Blood): 0 Log10(CFU/mL)
  Log10(CFU/g Heart): 5.445 Log10(CFU/g)
  Log10(CFU/g Kidney): 6.713 Log10(CFU/g)
  Log10(CFU/g Liver): 5.286 Log10(CFU/g)
  Log10(CFU/g Lung): 6.002 Log10(CFU/g)
  Log10(CFU/g Spleen): 6.995 Log10(CFU/g)
S. aureus ATCC6538
  reduction of the bacteria: about 0.3 log
S. aureus USA300 LAC; individual mouse 1 of 6
  Log10(CFU/mL IP fluid): 3.724 Log10(CFU/mL)
  Log10(CFU/mL Blood): 1.824 Log10(CFU/mL)
  Log10(CFU/g Heart): 0 Log10(CFU/g)
  Log10(CFU/g Kidney): 3.222 Log10(CFU/g)
  Log10(CFU/g Liver): 3.125 Log10(CFU/g)
  Log10(CFU/g Spleen): 3.426 Log10(CFU/g)
S. aureus USA300 LAC; individual mouse 2 of 6
  Log10(CFU/mL IP fluid): 3.912 Log10(CFU/mL)
  Log10(CFU/mL Blood): 3.213 Log10(CFU/mL)
  Log10(CFU/g Heart): 2.523 Log10(CFU/g)
  Log10(CFU/g Kidney): 4.951 Log10(CFU/g)
  Log10(CFU/g Liver): 4.501 Log10(CFU/g)
  Log10(CFU/g Lung): 4.23 Log10(CFU/g)
  Log10(CFU/g Spleen): 4.689 Log10(CFU/g)
S. aureus USA300 LAC; individual mouse 3 of 6
  Log10(CFU/mL IP fluid): 2.845 Log10(CFU/mL)
  Log10(CFU/mL Blood): 3.885 Log10(CFU/mL)
  Log10(CFU/g Heart): 2.824 Log10(CFU/g)
  Log10(CFU/g Kidney): 4.845 Log10(CFU/g)
  Log10(CFU/g Liver): 3.477 Log10(CFU/g)
  Log10(CFU/g Lung): 3.125 Log10(CFU/g)
  Log10(CFU/g Spleen): 3.885 Log10(CFU/g)
S. aureus USA300 LAC; individual mouse 4 of 6
  Log10(CFU/mL IP fluid): 3.255 Log10(CFU/mL)
  Log10(CFU/mL Blood): 1.523 Log10(CFU/mL)
  Log10(CFU/g Heart): 2.824 Log10(CFU/g)
  Log10(CFU/g Kidney): 2.824 Log10(CFU/g)
  Log10(CFU/g Liver): 4.398 Log10(CFU/g)
  Log10(CFU/g Spleen): 4.404 Log10(CFU/g)
S. aureus USA300 LAC; individual mouse 5 of 6
  Log10(CFU/mL IP fluid): 3.595 Log10(CFU/mL)
  Log10(CFU/mL Blood): 2.222 Log10(CFU/mL)
  Log10(CFU/g Heart): 3 Log10(CFU/g)
  Log10(CFU/g Kidney): 2.523 Log10(CFU/g)
  Log10(CFU/g Liver): 3.699 Log10(CFU/g)
  Log10(CFU/g Lung): 3 Log10(CFU/g)
  Log10(CFU/g Spleen): 4.222 Log10(CFU/g)
S. aureus USA300 LAC; individual mouse 6 of 6
  Log10(CFU/mL IP fluid): 1.824 Log10(CFU/mL)
  Log10(CFU/mL Blood): 0 Log10(CFU/mL)
  Log10(CFU/g Heart): 0 Log10(CFU/g)
  Log10(CFU/g Kidney): 4.247 Log10(CFU/g)
  Log10(CFU/g Liver): 3.699 Log10(CFU/g)
  Log10(CFU/g Lung): 3 Log10(CFU/g)
  Log10(CFU/g Spleen): 4.204 Log10(CFU/g)
S. haemolyticus 0202 [4]
  survival of the mice: 100%
